# How the values were obtained:
# [1] = tested on: Hepatitis B virus; test: Antiviral activity against Hepatitis B virus infected in human HepG2(2.2.15) cells assessed as reduction in hepatitis B e-antigen release; assay type: functional, organism-based
# [2] = Cytotoxicity against human HepG2(2.2.15) cells; assay type: cell-based
# [3] = Selectivity index, ratio of CC50 for human HepG2(2.2.15) cells to IC50 for HBV by hepatitis B e-antigen release detection assay; assay type: functional
# [4] = tested on: Hepatitis B virus; test: Antiviral activity against Hepatitis B virus infected in human HepG2(2.2.15) cells assessed as reduction in viral DNA replication; assay type: functional, organism-based
# [5] = Selectivity index, ratio of CC50 for human HepG2(2.2.15) cells to IC50 for HBV by hepatitis B surface antigen release detection assay; assay type: functional
# [6] = tested on: Hepatitis B virus; test: Antiviral activity against Hepatitis B virus infected in human HepG2(2.2.15) cells assessed as reduction in hepatitis B surface antigen release; assay type: functional, organism-based
# [7] = Selectivity index, ratio of CC50 for human HepG2(2.2.15) cells to IC50 for HBV by viral DNA replication detection assay; assay type: functional
SMILES,IC50 [1],IC50 [4],IC50 [6],CC50 [2],Ratio CC50/IC50 [3],Ratio CC50/IC50 [5],Ratio CC50/IC50 [7]
COc1cc(/C=C/C(=O)O[C@H]2CC[C@]3(C)[C@H]4CC=C5[C@@H]6C[C@@](C)(C(=O)OCC(N)=O)CC[C@]6(C)CC[C@@]5(C)[C@]4(C)CC[C@H]3C2(C)C)cc(OC)c1OC,252 µM,> 120 µM,230 µM,> 481 µM,>1.9,>2.1,
CCCC(=O)O[C@H]1CC[C@]2(C)[C@H]3C(=O)C=C4[C@@H]5C[C@@](C)(C(=O)O)CC[C@]5(C)CC[C@@]4(C)[C@]3(C)CC[C@H]2C1(C)C,37 µM,48.2 µM,370 µM,119 µM,3.2,,2.5
COc1cc(/C=C/C(=O)O[C@H]2CC[C@]3(C)[C@H]4C(=O)C=C5[C@@H]6C[C@@](C)(C(=O)O)CC[C@]6(C)CC[C@@]5(C)[C@]4(C)CC[C@H]3C2(C)C)cc(OC)c1OC,232 µM,120 µM,> 1160 µM,> 1160 µM,> 5,,>9.7

# Compounds with a lower IC50 [4], results first:
IC50 [1],IC50 [4],IC50 [6],SMILES,CC50 [2],Ratio CC50/IC50 [3],Ratio CC50/IC50 [5],Ratio CC50/IC50 [7]
49.2 µM,44.4 µM,1360 µM,CCC(=O)O[C@H]1CC[C@]2(C)[C@H]3C(=O)C=C4[C@@H]5C[C@@](C)(C(=O)O)CC[C@]5(C)CC[C@@]4(C)[C@]3(C)CC[C@H]2C1(C)C [GLYCYRRHETINIC ACID PROPIONATE],99.6 µM,2,,2.2
,0.89 µM,,C[C@H](Cn1cnc2c(N)ncnc21)OCP(=O)(O)O [TENOFOVIR ANHYDROUS],> 1760 µM,>1.4,>1.2,>1973.4
